# What was measured:
# Test in all cases: relative viability (nuclei count vs DMSO), 5 days (fraction); higher = more cells survive
# [1] = compound: CC(O)(CS(=O)(=O)c1ccc(F)cc1)C(=O)Nc1ccc(C#N)c(C(F)(F)F)c1 [Bicalutamide] + C[C@]1(O)C[C@@H](c2nc(-c3ccc4ccc(-c5ccccc5)nc4c3)c3c(N)nccn32)C1 [Linsitinib] (partner 1 µM)
# Summary of the method: (§1)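 Dosing by pin tool came one day after lung cancer cell lines were seeded in 1536-well plates, using either one drug or a fixed anchor-drug dose plus five library-drug doses (not always all listed) in √10 steps. After 5 days, nuclei were counted on 4× images. Relative viability is treated-well nuclei count divided by vehicle-well nuclei count, and values are medians of duplicate plates.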
# [2] = compound: CC(O)(CS(=O)(=O)c1ccc(F)cc1)C(=O)Nc1ccc(C#N)c(C(F)(F)F)c1 [Bicalutamide] + Nc1ncn([C@H]2C[C@H](O)[C@@H](CO)O2)c(=O)n1 [Decitabine] (partner 2 µM)
# Summary of the method: as §1
# [3] = compound: CC(O)(CS(=O)(=O)c1ccc(F)cc1)C(=O)Nc1ccc(C#N)c(C(F)(F)F)c1 [Bicalutamide] + CC(=O)Nc1cccc(-n2c(=O)n(C3CC3)c(=O)c3c(Nc4ccc(I)cc4F)n(C)c(=O)c(C)c32)c1 [Trametinib] (partner 0.02 µM)
# Summary of the method: as §1
# [4] = compound: C(C(=O)C(=O)O)Br [Bromopyruvate] + CCNC(=O)c1noc(-c2cc(C(C)C)c(O)cc2O)c1-c1ccc(CN2CCOCC2)cc1 [Luminespib] (partner 0.01 µM)
# Summary of the method: as §1
Cell Line,relative viability ([1]; first compound 0.08 µM),relative viability ([1]; first compound 0.253 µM),relative viability ([1]; first compound 0.8 µM),relative viability ([1]; first compound 2.53 µM),relative viability ([2]; first compound 0.08 µM),relative viability ([2]; first compound 0.253 µM),relative viability ([2]; first compound 0.8 µM),relative viability ([2]; first compound 2.53 µM),relative viability ([3]; first compound 0.08 µM),relative viability ([3]; first compound 0.253 µM),relative viability ([3]; first compound 0.8 µM),relative viability ([3]; first compound 2.53 µM),relative viability ([4]; first compound 1 µM),relative viability ([4]; first compound 3.162 µM),relative viability ([4]; first compound 10 µM),relative viability ([4]; first compound 31.62 µM),relative viability ([4]; first compound 100 µM)
NCI-H2085,0.856,1.04,0.938,0.794,0.555,0.601,0.553,0.525,0.513,0.554,0.535,0.404,0.417,0.425,0.508,0.396,0.217
NCI-H2087,1.03,1.07,0.95,0.77,0.295,0.237,0.302,0.286,0.214,0.191,0.178,0.202,0.141,0.176,0.16,0.175,0.161
NCI-H2126,0.737,0.724,0.731,0.68,0.572,0.537,0.582,0.528,0.546,0.523,0.545,0.626,0.888,0.892,0.943,0.896,0.874
NCI-H2347,1.1,0.944,1.02,0.934,0.583,0.651,0.628,0.634,0.283,0.287,0.307,0.249,0.783,0.522,0.686,0.401,0.702
NCI-H2405,0.897,0.873,1.06,0.901,0.708,0.689,0.787,0.716,0.674,0.606,0.78,0.638,0.719,0.643,0.738,0.741,0.675
NCI-H3122,1.01,1.04,1.04,1.07,0.4,0.45,0.449,0.455,0.202,0.241,0.225,0.258,0.0847,0.0952,0.105,0.0703,0.0612
PC-3 [JPC-3],0.927,1.02,0.986,1.02,0.791,0.88,0.797,0.873,0.756,0.737,0.697,0.719,0.797,0.752,0.766,0.608,0.693
PC-14,0.968,0.967,0.976,1.04,0.243,0.182,0.239,0.204,0.879,0.738,0.926,0.72,0.191,0.184,0.169,0.157,0.203
RERF-LC-KJ,0.868,0.85,0.94,0.904,0.745,0.631,0.837,0.66,0.968,0.909,1.07,0.81,1.28,1.32,1.2,1.21,1.23

# From the supplement of paper PMC10307832
